Measurements reported in US11865176B2, “Compositions and methods of modulating anti-tumor immunity” (Dana-Farber Cancer Institute, Inc., priority 2016, dated 2024).

Tests used:
[1] = test system: patient-derived organotypic tumor spheroids (PDOTS); test: Cytokine profiling of patient-derived organotypic tumor spheroids (PDOTS) in 3D microfluidic culture; format: cell-based, human; conditions: 100 nM; day 1 and day 3
Method: Experiments were performed as described (28). Briefly, fresh tumor specimens from human patients were received in media (DMEM) on ice and minced in 10 cm dishes (on ice) in a sterile field. S2 fractions (40-100 μm) were used for ex vivo culture as previously described (28). An aliquot of the S2 fraction was pelleted and re-suspended in type I rat-tail collagen (Corning, Corning, NY) and the spheroid-collagen mixture was then injected into the center gel region of the 3D microfluidic culture device. After 30 minutes at 37° C., collagen hydrogels containing PDOTS/MDOTS were hydrated with media with indicated treatments. MDOTS were treated with IgG isotype control (10 μg/mL, clone 2A3) or rat-α-mouse anti-PD-1 (10 μg/ml, clone RMP1-14, BioXCell). […]
Mouse lung broncho alveolar lavage (BAL) was performed by intracheal injection of 2 ml of sterile PBS followed by collection by aspiration. Cytokines were measured using 19-plex mouse magnetic Luminex kit (R&D systems), Mouse Cytokine 23-plex Assay (Bio-Rad) or Human Cytokine 40-plex Assay (Bio-Rad) and measured on Bio-Plex 200 system (Bio-Rad). […] Fold changes relative to the control were calculated and plotted as log 2FC. Lower and upper limits of quantitation (LLOQ/ULOQ) were derived from standard curves for cytokines above or below detection. […]

[2] = test system: splenic T cells (Tconv, CD8+, Treg); test: Cell co-culture and cytokine production ex vivo; format: cell-based, mouse
Method: Naïve or KP tumor bearing C57BL/6 mice were sacrificed and total splenocytes were harvested. Spleens were digested with collagenase D (Roche) and Dnase I (Roche) at 37° C. for 30 min, followed by 1×ACS lysis buffer (Biolegend) incubation to lyse red blood cells. The collected total splenocytes were stained with the fluorochome-conjugated cell surface markers CD3, CD4, CD8 and CD25 to isolate different T cell subpopulations, including conventional T cell Tconv (CD3+CD4+[…]), Treg (CD3+CD4+CD25+), and CD8+(CD3+CD8+) using BD FACSAria II SORP cell sorter (BD Bioscience). DAPI (4′,6-diamidino-2-phenylindole) staining was used to exclude dead cells. Sorted cells were cultured in 96-well plates pre-coated with CD3 antibody (eBioscience) and treated with trilaciclib in the presence of CD28 (eBioscience). Cells were collected 3 days after culturing and cytokine production of IFNγ and IL-2 was determined by intracellular staining and analyzed on BD LSRFortessa (BD Bioscience).

[3] = test system: tumor-infiltrating CD3+ T cells; test: Single-cell RNA-seq of tumor-infiltrating CD3+ T cells from KP GEMM lung tumors; format: in vivo, mouse
Text: Library preparation and pre-processing: Single-cell suspensions from KrasG^12D/+Trp53^fl/fl GEMM mice treated with trilaciclib were isolated as described for tumor-infiltrating immune cells, with modifications. After isolation, live cells were stained and sorted for the CD45+CD3+DAPI-population and plated at one cell/well of a skirted twin.tec 96-well plate (Eppendorf) containslxTCL buffer (Qiagen cat #1031576) spiked with ERCC (Ambion, 1:2,000,000 dilution ratio). A total of four 96-well plates were generated, two plates with and two plates without ERCC spike-ins. After sorting, full-length RNA-seq from isolated single cells was performed according to SMART-seq2 protocol with modifications. Briefly, total RNA was purified using RNA-SPRI beads. Poly(A)+ mRNA was converted to cDNA for amplification. The converted cDNA transcript was subject to barcoding specific to each sample using transposon-based fragmentation that used dual-indexing. For single-cell sequencing, each cell was given its own combination of barcodes. Barcoded cDNA fragments were then pooled prior to sequencing. Sequencing was carried out as paired-end (PE) 2×36 bp with an additional 8 cycles for each index on NexSeq 500 desktop sequencer (Illumina). To obtain quantitative mapping information, PE reads were mapped to the mouse genome (mm9), concatenated with ERCC sequences for spiked-in samples, by STAR (56). Estimated transcript counts and transcripts per million (TPM) for the mouse Gencode vM1 annotation, concatenated with ERCC sequence information for spiked-in samples, were obtained using the pseudo-aligner Kallisto (57). Aggregated and library scaled TPM values for genes were obtained according to the methods described (58) and were used in further downstream differential distribution, Gene Ontology and cell cycle analysis. […] Genes were considered not expressed if TPM<1 and were subsequently removed if not detected in at least 10% of remaining cells. The single-cell RNA-seq results have been deposited in NCBI's Gene Expression Omnibus and are accessible through GEO Series accession number GSE89477 (https://www.ncbi.nlm.nih.gov/geo/query/acc.cgi?acc=GSE89477).
We used a multi-step approach using the R package SCONE to identify the optimal normalization strategy and account for possible batch effects, observed and hidden technical covariates (59). […] Next, these genes were used in the SCONE framework as negative control genes for unwanted variation for all plates. We continued with highest scored normalization strategy according to SCONE metrics, which included adjusting for batch and biological effects, removal of observed technical variation based on previously identified quality metrics, scaling for library size with DESeq, and imputing drop-out events using a combined clustering and probabilistic scoring algorithm.
To assign cells to a cell-cycle stage we applied the cyclone classification tool as previously described (60).
Subsequently, we combined two approaches. […] Next, these genes were used to perform PCA and the 100 most correlated and anti-correlated genes for the first 5 principal components were retained for reducing dimensionality and separating cells in gene expression space with t-SNE. Distinct groups were identified applying density based clustering (dbscan) on the t-SNE generated coordinates, resulting in three (3) groups of cells.
Genes that display differential distribution between previously identified groups or between treatments were discovered by performing pairwise comparisons with the scDD (http://biorxiv.org/content/early/2015/12/29/035501) package in R. Enriched biological processes were identified using the online GOrilla tool (http://bmcbioinformatics.biomedcentral.com/articles/10.1186/1471-2105-10-48).

CN1CCN(c2ccc(Nc3ncc4cc5n(c4n3)C3(CCCCC3)CNC5=O)nc2)CC1 [trilaciclib]
levels of Th1 cytokines (CXCL9, CXCL10, IFNγ, IL-16, CXCL16) [1]: increased levels of Th1 cytokines
IL-2 production ([2]; Tconv cells treated ex vivo, 3 days, naïve vs tumor-bearing mice): increased IL-2 production only in cells from tumor-bearing mice
increase of IFNγ production ([2]; splenic CD8+ T cells from tumor-bearing mice co-cultured with Tregs): ~10 fold
log2(G1T28 vs vehicle) ([3]; gene Aifl): Aifl^65 1.045
log2(G1T28 vs vehicle) ([3]; gene Ccl2): Ccl2^63, 690.6
log2(G1T28 vs vehicle) ([3]; gene Ccl5): Ccl5^63 0.7416
log2(G1T28 vs vehicle) ([3]; gene Ccna2): Ccna2^71 −1.194
log2(G1T28 vs vehicle) ([3]; gene Ccnd1): Ccnd1^67 0.8223
log2(G1T28 vs vehicle) ([3]; gene Ccr2): Ccr2^61 3.091
log2(G1T28 vs vehicle) ([3]; gene Cd22): Cd22^72 −1.232
log2(G1T28 vs vehicle) ([3]; gene Cd86): Cd86^70 0.621
log2(G1T28 vs vehicle) ([3]; gene Clcf1): Clcf1^63 1.47
log2(G1T28 vs vehicle) ([3]; gene Csfl): Csfl^63 0.5966
log2(G1T28 vs vehicle) ([3]; gene Cx3cr1): Cx3cr1^22 1.233
log2(G1T28 vs vehicle) ([3]; gene Cxcl1): Cxcl1^68 0.7175
log2(G1T28 vs vehicle) ([3]; gene Ece1): Ece1^62 2.974
log2(G1T28 vs vehicle) ([3]; gene Il2ra): Il2ra^66 0.9413
log2(G1T28 vs vehicle) ([3]; gene Il7r): Il7r^64 1.461
log2(G1T28 vs vehicle) ([3]; gene Tnfsf8): Tnfsf8^63 1.037
IL-2 signaling activation ([3]; group 3, and group 1 to a lesser extent): significantly increased IL-2 signaling activation
proportion of T cells in the G1 phase ([3]; groups 1 and 3): increased the proportion of T cells in the G1 phase
